The test system of the first assay is rat mixed cerebral cell culture. Description: Neutralizing effect on lipopolysaccharide (LPS)-induced cytotoxicity in a rat mixed cerebral cell culture system (LIC assay). It counts as cell-based. As to conditions: neonatal rat mixed cerebral cells, 4 to 5 days incubation, MTT, concentration giving 50% recovery rate, read-out: ED50 value. The procedure:
Neutralizing effect on lipopolysaccharide (LPS)--induced cytotoxicity in a rat mixed cerebral cell culture system (LIC assay)
LPS, a substance known to activate glial cells (astrocytes, microglia), was added to a rat mixed cerebral cell culture system and the compounds which would neutralize the cytotoxicity induced by LPS were screened by the following method.
(1) Neonatal rat mixed cerebral cell culture
From neonatal Crj:CD (SD) rats (1-3 day old, Charles-River Japan, Ltd), the brains were isolated and placed in ice-cooled D-MEM/10% FCS (Dulbecco's cell culture minimal essential medium supplemented with 10% of fetal calf serum, 100 units/ml of penicillin and 100 gg/ml of streptomycin). Then, mixed cerebral cell culture were treated in the following steps. Incidentally stating, ice-cooled D-MEM/10%FCS was used as the medium.
1. The cerebrum was separated from the enucleated brain and the meninges was removed under a stereoscopic microscope.
2. The cerebrums were placed in a nylon-mesh (100-200 μm) bag for filtration with the aid of a rubber policeman.
3. Using ice-cooled D-MEM/10% FCS, the cells were washed three times (1,000 rpm, 8 min.). Then, this cell suspension was subjected to filtration through a cell strainer (40 μm mesh, Falcon 2340) and the number of viable cells was counted by the trypan blue method.
4. The cells were seeded in a tissue-culture flask (96-well microtiter plate, Nunc) at a cell density of 1×10^5 cells/100 μl/well).
5. One week later, 100 μl/well of D-MEM/10% FCS was added.
6. The plate was further incubated for about 1 to 2 weeks and the neutralizing activity of the test compounds was evaluated by the following method.
(2) Evaluation of neutralizing activity
1. Following the rat mixed cerebral cell culture in (1) above (after 2-3 weeks of incubation), the medium was discarded from the respective wells of the 96-well microtiter plate, and 50 μl/well of fresh D-MEM/2% FCS was added.
2. A test sample and LPS (manufactured by Difco Inc., E. coli 011: B4, Bact) of an adequate concentration, 25 μl per well, were respectively added. D-MEM/2% FCS was employed as the medium.
As the test sample, each of the compounds shown in Table 21 was dissolved in DMSO at a concentration of 10^-2 M and the solution was diluted with D-MEM/2% FCS, which was used for assay.
3. After a suitable period (usually 4 to 5 days) of incubation, the degree of cytotoxic effect was assessed by the microscopic observation, and MTT method.
(3) MTT [3-(4,5-dimethylthiazol-2-yl)-2,5-diphenyltetrazolium bromide] method
MTT dissolved in a phosphate-buffered physiological saline solution (5 mg/ml, manufactured by Sigma Chemical Co.,) was added, 10 μl per well. After 4 to 6 hours of incubation (37° C., under 10% carbon dioxide gas phase), 100 μl/well of 0.01N HCl containing 10% SDS was added to thereby dissolve the formed formazan. After complete dissolution, the absorbance (wave-length 540-590 nm) was measure for each well.
The ED50 values were determined by calculating the recovery rates by means of the following equation and plotting the concentrations of compounds giving a recovery rate of 50% on graph paper.
Recovery rate (%)=(C-B)×100/(A-B)
[A: the absorbance at 550 nm of the control well to which only the medium had been was added
B: the absorbance at 550 nm of the well to which LPS had been added
C: the absorbance at 550 nm of the well to which both LPS and the test compound had been added]
Turning to `N#CC(CCCCCC(=O)NO)(c1ccccc1)c1ccccc1` [Compound 1, 7-Cyano-7,7-diphenylheptanohydroxamic acid], the EC50 stood at 10 nM.
Still for that read-out and setting: the figure for `N#CC(CCCCCC(=O)NO)(c1ccccc1)c1ccc(F)cc1` (stereo not drawn) [Compound 3, 7-cyano-7-(4-fluorophenyl)-7-phenylheptanohydroxamic acid] is 10 nM; for `COc1ccccc1C(C#N)(CCCCCC(=O)NO)c1ccccc1` (stereo not drawn) [Compound 4, 7-cyano-7-(2-methoxyphenyl)-7-phenylheptanohydroxamic acid] it is 10 nM; for `N#CC(CCCCCC(=O)NO)(c1ccccc1)c1nc2ccccc2s1` (stereo not drawn) [Compound 11, 7-(2-benzothiazolyl)-7-cyano-7-phenylheptanohydroxamic acid] it is 10 nM.
Consider `N#CC(CCCCCC(=O)NO)(c1ccccc1)c1ccc2ccccc2n1` (stereo not drawn) [Compound 12, 7-cyano-7-phenyl-7-(2-quinolyl)heptanohydroxamic acid], for which the EC50 amounted to 10 nM.
Turning to `CCC(=O)ONC(=O)CCCCCC(C#N)(c1ccccc1)c1ccccc1` [Compound 13, O-Propionyl-7-cyano-7,7-diphenylheptanohydroxamic acid], the EC50 came out at 10 nM.
The same measure, in the same setting: to `CCC(=O)ONC(=O)CCCCCC(C#N)(c1ccccc1)c1ccc2ccccc2n1` (stereo not drawn) [Compound 20, O-propionyl-7-cyano-7-phenyl-7-(2-quinolyl)heptanohydroxamic acid] belongs 10 nM; to `N#CC(CCCCCC(=O)NOC(=O)c1ccccc1)(c1ccccc1)c1ccc2ccccc2n1` (stereo not drawn) [Compound 21, O-benzoyl-7-cyano-7-phenyl-7-(2-quinolyl)heptanohydroxamic acid], 10 nM.

In a further assay the test system is rats pretreated with LPS infused into the unilateral striatum. Briefly: Inhibitory effect on the apomorphine-induced circling behavior in rats pretreated with LPS infused into the unilateral striatum. It counts as in vivo, rat. As to conditions: male Wistar rats; i.p. 0.2 ml per 100 g, 30 minutes before LPS infusion and 3 and 24 hours after; apomorphine 1 mg/kg s.c. 7-8 days postoperatively; 30-minute count. The procedure:
Inhibitory effect on the apomorphine -induced circling behavior in rats pretreated with LPS infused into the unilateral striatum Male Wistar rats (8-9 week old) weighing 250-280 g at the operation for LPS infusion were submitted to this experiment.. Throughout the experimental period, the animals were group-fed in a vivarium controlled at 24±1° C. and 55±1% R.H., with a light-dark cycle of 12 hr (7:00-19:00 ON) and free access to food (Clea Japan, Inc., CE-2 solid pellets) and water (tap water). Under pentobarbital (50 mg/kg, i.p.) anesthesia, the rat's head was immobilized in David Kopf's brain stereotaxic apparatus for small animal use and with reference to Pellegrino & Cushman's brain atlas, a 30 Gauge stainless steel needle was indwelled in the unilateral striatum (A8.2, L2.8, H4.3). The infusion volume of LPS was set at 5 μg. LPS was dissolved in 1 μl of a phosphate-buffered physiological saline solution (PBS, pH 7.2) and the solution was infused gradually at a speed of 0.2 μl/min. The infusion needle was kept in position till 3 minutes following infusion and withdrawn only after sufficient diffusion of the drug solution had taken place. After 7-8 days postoperatively, 1 mg/kg of apomorphine was administered subcutaneously and the number of induced circling behavior during a 30-minute period immediately following administration were determined with an automatic counter. […]
Take `N#CC(CCCCCC(=O)NO)(c1ccccc1)c1ccccc1` [Compound 1, 7-Cyano-7,7-diphenylheptanohydroxamic acid]: the “number of induced circling behavior relative to control group” value amounted to 41%.

These data come from patent US5891916A, “Aromatic hydroxamix acid compounds, their production and use” (Takeda Chemical Industries, Ltd., priority 1995, dated 1999).
